Structures can show the parent of a compound that is named as a salt.
Biological target: T1, Syk tyrosine kinase (Homo sapiens, UniProt P43405)
T1 construct: purchased Carna Biosciences, Inc
Assay: Test for Syk tyrosine kinase inhibitory activity (ELISA)
Type: biochemical
Details: Syk tyrosine kinase (Carna Biosciences), 25 μM ATP in substrate solution, 30° C. 1 hour, n=2; read-out: Evaluation (IC50, concentration inhibiting the tyrosine kinase activity at 50%)
Description: Test Example 1: Test for Syk Tyrosine Kinase Inhibitory Activity
1. Preparation of Test Substance
A test substance was prepared at 10 mM in dimethyl sulfoxide (DMSO), and further diluted with DMSO to concentrations of 1000, 300, 100, 30, 10, 3, 1, 0.3, 0.1, 0.03, and 0.01 μM. The resulting solutions were further diluted to 20-fold with an assay buffer, whereby test substance solutions were prepared. As a negative control, a solution obtained by diluting DMSO to 20-fold with an assay buffer was used. As the assay buffer, a buffer containing 15 mM Tris-HCl (pH 7.5), 0.01 (v/v) % Tween-20, and 1 mM dithiothreitol was used.
2. Measurement of Syk Tyrosine Kinase Inhibitory Activity
The activity was measured using the ELISA method. Each of the test substance solutions was added to a streptavidine-coated 96-well place (DELFIA Strip Plate 8×12 wells, PerkinElmer Co., Ltd,) at 10 μL per well (n=2), and a substrate solution (625 nM biotinylated peptide substrate, 25 μM ATP, 25 mM MgCl2, 15 mM Tris-HCl (pH 7.5), 0.01 (v/v) % Tween-20, 1 mM dithiothreitol) was added to the plate at 20 μL per well, and the resulting mixture was stirred. Finally, Syk tyrosine kinase (Carna Biosciences, Inc.) (previously diluted to 0.025 nM with the assay buffer) was added to the plate at 20 μL per well, and the resulting mixture was stirred. A reaction was allowed to proceed at 30° C. for 1 hour. After the plate was washed 4 times with a washing buffer (50 mM Tris-HCl (pH 7.5, 150 mM NaCl, 0.02 (v/v) % Tween-20), a blocking buffer (0.1% bovine serum albumin, 50 mM Tris-HCl (pH 7.5), 150 mM NaCl, 0.02 (v/v) % Tween-20) was added to the plate at 150 μL per well, and blocking was performed at 30° C. for 30 minutes. Then, the blocking buffer was removed, and a horseradish peroxidase-labeled anti-phosphorylated tyrosine antibody (BD Biosciences, Inc.) (previously diluted to 10000-fold with the blocking buffer) was added to the plate at 100 μL per well, and the plate was incubated at 30° C. for 30 minutes. After the plate was washed 4 times with the washing buffer, a 3,3′,5,5′-tetramethylbenzidine solution (Sigma-Aldrich Co., Ltd.) was added to the plate at 100 μL per well to develop the color for 10 minutes. The reaction was stopped by adding 0.1 M sulfuric acid at 100 μL per well. The absorbance at 450 nm was measured using a microplate reader (Multiskan F C, Thermo Fisher Scientific K,K.).
3. Analysis of Measurement Results
A non-linear regression analysis was performed for the measured absorbance using the SAS system (SAS institute. Inc.), and a concentration of each of the test substances: inhibiting the tyrosine kinase activity at 50% (IC50 ) was calculated. A case where IC50 is […] was evaluated as ***, a case where IC50 is 5 nM or more and less than 50 nM was evaluated as **, and a case where IC50 is 50 nM or more and less than 500 nM was evaluated as *, which are shown in the column of evaluation item.

| Structure (SMILES) | IC50 |
| --- | --- |
| N#Cc1ccnc(Nc2cc(C3CC3)cc(-c3ccc(N4CCC[C@@H](O)C4)nc3)n2)c1 [Example 34, 2-({4-cyclopropyl-6′-[(3R)-3-hydroxypiperidin-1-yl]-2,3′-bipyridin-6-yl}amino)pyridine-4-carbonitrile hydrochloride] | 5 to 50 nM |
| N#Cc1ccnc(Nc2cc(C3CC3)cc(-c3cnc(N4CCC(O)CC4)nc3)n2)c1 [Example 35, 2-({4-cyclopropyl-6-[2-(4-hydroxypiperidin-1-yl)pyrimidin-5-yl]pyridin-2-yl}amino)pyridine-4-carbonitrile hydrochloride] | 50 to 500 nM |
| Cn1ncc2cc(-c3cc(C4CC4)cc(Nc4cc(C#N)ccn4)n3)ccc21 [Example 36, 2-{[4-cyclopropyl-6-(1-methyl-1H-indazol-5-yl)pyridin-2-yl]amino}pyridine-4-carbonitrile hydrochloride] | 5 to 50 nM |
| Cn1ncc2ccc(-c3cc(C4CC4)cc(Nc4cc(C#N)ccn4)n3)cc21 [Example 37, 2{[4-cyclopropyl-6-(1-methyl-1H-indazol-6-yl)pyridin-2-yl]amino}pyridine-4-carbonitrile hydrochloride] | 5 to 50 nM |
| CN1CCCN(c2ccc(-c3cc(C4CC4)cc(Nc4cc(C#N)ccn4)n3)cn2)CC1 [Example 38, 2-{[4-cyclopropyl-6′-(4-methyl-1,4-diazepan-1-yl)-2,3′-bipyridin-6-yl]amino}pyridine-4-carbonitrile dihydrochloride] | 5 to 50 nM |
| CNC(=O)C1CCCN1c1ccc(-c2cc(C3CC3)cc(Nc3cc(C#N)ccn3)n2)cn1 (stereo not shown) [Example 39, 1-{6-[(4-cyanopyridin-2-yl)amino]-4-cyclopropyl-2,3′-bipyridin-6′-yl}-N-methylpyrrolidine-2-carboxamide hydrochloride] | 50 to 500 nM |
| N#Cc1ccnc(Nc2cc(C3CC3)cc(-c3ccc(N4CCC[C@H]4C(N)=O)nc3)n2)c1 [Example 40, (S)-1-{6-[(4-cyanopyridin-2-yl)amino]-4-cyclopropyl-2,3′-bipyridin-6′-yl}pyrrolidine-2-carboxamide hydrochloride] | 50 to 500 nM |

More lines, now with the values ahead:

| IC50 | Structure (SMILES) |
| --- | --- |
| 50 to 500 nM | N#Cc1ccnc(Nc2cc(C3CC3)cc(-c3ccc(N4CCC(O)CC4)cc3)n2)c1 [Example 41, 2-({4-cyclopropyl-6-[4-(4-hydroxypiperidin-1-yl)phenyl]pyridin-2-yl}amino)pyridine-4-carbonitrile hydrochloride] |
| 50 to 500 nM | CC(=O)N[C@H]1CCN(c2ccc(-c3cc(C4CC4)cc(Nc4cc(C#N)ccn4)n3)cn2)C1 [Example 42, N-[(3S)-1-{6-[(4-cyanopyridin-2-yl)amino]-4-cyclopropyl-2,3′-bipyridin-6′-yl}pyrrolidin-3-yl]acetamide hydrochloride] |
| 50 to 500 nM | CCNC(=O)N1CCN(c2ccc(-c3cc(C4CC4)cc(Nc4cc(C#N)ccn4)n3)cn2)CC1 [Example 43, 4-{6-[(4-cyanopyridin-2-yl)amino]-4-cyclopropyl-2,3′-bipyridin-6′-yl}-N-ethylpiperazine-1-carboxamide hydrochloride] |
| 50 to 500 nM | CC(C)NC(=O)N1CCN(c2ccc(-c3cc(C4CC4)cc(Nc4cc(C#N)ccn4)n3)cn2)CC1 [Example 44, 4-{6-[(4-cyanopyridin-2-yl)amino]-4-cyclopropyl-2,3′-bipyridin-6′-yl}-N-(propan-2-yl)piperazine-1-carboxamide hydrochloride] |
| 50 to 500 nM | N#Cc1ccnc(Nc2cc(C3CC3)cc(-c3ccc(N4CC[C@@H](NC(N)=O)C4)nc3)n2)c1 [Example 45, 1-[(3R)-1-{6-[(4-cyanopyridin-2-yl)amino]-4-cyclopropyl-2,3′-bipyridin-6′-yl}pyrrolidin-3-yl]urea hydrochloride] |
| 50 to 500 nM | N#Cc1ccnc(Nc2cc(C3CC3)cc(-c3ccc(N4CCN(C(N)=S)CC4)nc3)n2)c1 [Example 46, 4-{6-[(4-cyanopyridin-2-yl)amino]-4-cyclopropyl-2,3′-bipyridin-6′-yl}piperazine-1-carbothioamide hydrochloride] |

— US20130225548A1, “Pyridine Derivative and Medicinal Agent” (NIPPON SHINYAKU CO., LTD., priority 2010, published 2013)
